Key:
Format in all cases: cell-based, human
[1] = test system: iPSC-derived cardiomyocytes; test: Contractile and electrophysiological properties by multielectrode array analysis, FOXO/FOXM1 modulators; conditions: for contractility: iPSC-derived cardiomyocytes
Source text: (§1) Cell lines used included UCSD142i-86-1 iPSC line (WiCell), Gibco human episomal iPSC line (Thermo), and DiPS 1016SevA iPSC line (Harvard. Cardiomyocytes are obtained utilizing a differential protocol adapted from Lian et al. Nat Protoc 2013: 8 (1): 162-75 (FIG. 16A). The differentiation protocol may be modified utilizing modulators of FOXO and FOXM1 (FIG. 16B). Cardiomyocytes may be characterized as being contractility mature, metabolically mature, or electrophysiologically mature (FIG. 16C).
The contractile properties of cardiomyocytes improved with FOXO activation. FOXO activation with LOM612 or FOXM1 inhibition with RCM-1 increases protein expression of cardiac troponin T (TNNT2) and increases mean beat amplitude by multielectrode array analysis (FIG. 17). […] AS1842856 may be applied in an amount of about 0.2 to 1 μM.
(§2) FOXO activation improved electrophysiological properties of PSC-CMs. FOXO activation with LOM612 enhances protein, but not RNA expression of Kir2.1 (FIGS. 19A-19B). FOXO activation increases the upstroke velocity (spike slope) (FIG. 19C).

[2] = test system: iPSC-derived cardiomyocytes; test: Protein expression of cardiac markers in iPSC-CMs, 3D suspension culture, FOXO/FOXM1 modulators; conditions: for protein expression of TNNI3 / protein expression of TNNT2: 3D suspension culture
Source text: (§3) FOXO activation with LOM612 enhances protein (FIG. 19B) but not RNA expression of Kir2.1 (FIG. 19A). FOXO activation increases the upstroke velocity (spike slope) (FIG. 19C).
as §1

PSC-CMs [3] = test: Oxygen consumption rate and respiratory reserve capacity of PSC-CMs
Source text: FOXO activation with LOM612 (FIG. 18A) or FOXM1 inhibition with RCM-1 (FIG. 18B) increases maximum oxygen consumption rate (OCR) and respiratory reserve capacity, while inhibition of FOXO with AS1842856 (FIG. 18C) inhibits maximum OCR and respiratory reserve capacity.
In some embodiments, the cardiomyocytes are metabolically mature cardiomyocytes. In some aspects, a cardiomyocyte has increased metabolic activity as compared to an immature cardiomyocyte. In some embodiments, a cardiomyocyte has increased oxygen consumption and/or extracellular acidification rate as compared to immature cardiomyocytes. In some embodiments, a cardiomyocyte has increased respiratory reserve as compared to immature cardiomyocytes. Metabolic maturity may be quantified using a Seahorse mito stress metabolic assay (Agilent). The assay may be used to measure oxygen consumption rate and extracellular acidification rate in response to one or more compounds (e.g., small molecule compounds) that affect mitochondrial function.
FOXO activation with LOM612 or FOXM1 inhibition with RCM-1 increases maximum oxygen consumption rate (OCR) and respiratory reserve capacity, while inhibition of FOXO with AS1842856 inhibits maximum OCR and respiratory reserve capacity (FIG. 18).

PSC-CMs [4] = test: RNA expression of cardiac markers in PSC-CMs
Source text: as §3, §2

iPSC-CMs [5] = test: Multielectrode array (Axion Maestro Edge) of iPSC-CMs in 3D culture; conditions: iPSC-CMs differentiated and treated in 3D
Source text: (§4) Nutlin-3a increases the percentage (FIG. 12A) and mean fluorescence intensity (MFI) (FIG. 12B) of TNNT2 in iPSC-CMs as well as the percentage (FIG. 12C) and MFI (FIG. 12D) of Kir2.1 in TNNT2+iPSC-CMs by flow cytometry. Nutlin-3a increases the percentage (FIG. 12E) and MFI (FIG. 12F) of p53 in TNNT2+iPSC-CMs. Nutlin-3a increases mean beat amplitude (FIG. 12G) and mean spike amplitude (FIG. 12H) of iPSC-CMs as quantified using a multielectrode array. *p<0.05. **p<0.01. ***p<0.001. ****p<0.0001 by one-way ANOVA. iPSC-CMs differentiated and treated in 3D.
(§5) Kir2.1 is the ion channel largely responsible for maintaining the resting membrane potential via the inward rectifier current (IK1); at lower levels, abnormal membrane depolarization can increase the risk of ventricular arrhythmias (8, 9). Nutlin-3a but not Torin1 treatment of iPSC-CMs increased expression of TNNT2 and Kir2.1 (FIG. 12A-12D). Also, Nutlin-3a but not Torin1 increased expression of p53, which may support induction of a quiescent state (FIG. 12E-12F).

iPSC-CMs [6] = test: Flow cytometry of marker expression in iPSC-CMs differentiated and treated in 3D culture
Source text: as §4, with “3D. […]” for “3D.”
as §5

iPSC-CMs [7] = test: Resting membrane potential of iPSC-CMs in 2D culture; conditions: Torin1 200 nM, compared to control (DMSO)
Source text: Pluripotent stem cell-derived cardiomyocytes (PSC-CMs) offer a regenerative approach to treat patients with systolic heart failure. However, delivery of immature PSC-CMs may increase the risk of ventricular arrhythmias, which is a barrier to clinical translation (1, 2). It was recently identified that inhibition of the mechanistic target of rapamycin (mTOR) pathway improves maturation of cardiomyocytes derived from induced pluripotent stem cells (iPSCs) in two-dimensional (2D) culture (3). […] This could greatly simplify the manufacturing process compared to other protocols that take 2 months to produce mature PSC-CMs with similar resting membrane potentials (4).

SMILES	contractility [1]	protein expression of TNNI3 [2]	protein expression of TNNT2 [2]	maximum oxygen consumption rate (OCR) (PSC-CMs [3])	respiratory reserve capacity (PSC-CMs [3])	mean beat amplitude by multielectrode array analysis ([1]; 3D suspension culture)	mean fluorescence intensity (MFI) of Kir2.1 (iPSC-CMs [6]; flow cytometry)	mean fluorescence intensity (MFI) of p53 (iPSC-CMs [6]; flow cytometry)	percentage of Kir2.1 in TNNT2+ iPSC-CMs (iPSC-CMs [6]; flow cytometry)	percentage of TNNT2 in iPSC-CMs (% TNNT2+) (iPSC-CMs [6]; flow cytometry)	percentage of p53 in TNNT2+ iPSC-CMs (iPSC-CMs [6]; flow cytometry)	expression of Kir2.1 (iPSC-CMs [6]; iPSC-CMs)	expression of p53 (iPSC-CMs [6]; iPSC-CMs)	also measured
CCn1cc(C(=O)O)c(=O)c2c(N)c(F)c(NC3CCCCC3)cc21 [AS1842856]	poorly contractile cells	decreases	decreases	inhibits	inhibits									beating of spheroids ([1]; 3D suspension culture): non-beating spheroids; cardiac marker RNA levels (PSC-CMs [4]): reduce
CN(C)c1nsc2c1C(=O)c1ccccc1C2=O [LOM612]	enhances	increases	increases	increases	increases	increases								upstroke velocity (spike slope) ([1]; FOXO activation, PSC-CMs): increases; protein expression of Kir2.1 ([2]; PSC-CMs): enhances
COc1ccc(C2=N[C@@H](c3ccc(Cl)cc3)[C@@H](c3ccc(Cl)cc3)N2C(=O)N2CCNC(=O)C2)c(OC(C)C)c1 [Nutlin-3a, nutlin-3a]							increases	increases	increases	increases	increases	increased	increased	mean beat amplitude (iPSC-CMs [5]): increases; mean spike amplitude (iPSC-CMs [5]): increases; mean fluorescence intensity (MFI) of TNNT2 (iPSC-CMs [6]; flow cytometry): increases; expression of TNNT2 (iPSC-CMs [6]; iPSC-CMs): increased
O=c1c(O)c(-c2ccc(O)c(O)c2)oc2cc(O)cc(O)c12 [Quercetin, quercetin]							increases	increases	increases		increases	increased	increased	
N#Cc1c(-c2cccs2)cc(-c2cccs2)nc1SCC(=O)c1cccs1 [RCM1]		increases	increases	increases	increases	increases	increases		increases	increases		increased		purity of iPSC-CMs (iPSC-CMs [6]): increased
CCC(=O)N1CCN(c2ccc(-n3c(=O)ccc4cnc5ccc(-c6cnc7ccccc7c6)cc5c43)cc2C(F)(F)F)CC1 [Torin1]														resting membrane potential (iPSC-CMs [7]): decreased

— patent US20250297224A1, “CARDIOMYOCYTES AND COMPOSITIONS AND METHODS FOR PRODUCING THE SAME” (President and Fellows of Harvard College, priority 2021, published 2025)
